{"source": "paper PMC7804268", "about": "“Engineering and elucidation of the lipoinitiation process in nonribosomal peptide biosynthesis” (Nature Communications, 2021)", "target": "T1, RzmA-Cs (Mycetohabitans rhizoxinica, UniProt E5ATN9, R148A)", "T1 construct": "gene RBRH_01504; excised starter condensation (Cs) domain, residues 1-431, pET28a, E. coli BL21(DE3), N-terminal His6 tag removed by thrombin, size-exclusion purified", "T1 sequence (E5ATN9 1-431 R148A)": "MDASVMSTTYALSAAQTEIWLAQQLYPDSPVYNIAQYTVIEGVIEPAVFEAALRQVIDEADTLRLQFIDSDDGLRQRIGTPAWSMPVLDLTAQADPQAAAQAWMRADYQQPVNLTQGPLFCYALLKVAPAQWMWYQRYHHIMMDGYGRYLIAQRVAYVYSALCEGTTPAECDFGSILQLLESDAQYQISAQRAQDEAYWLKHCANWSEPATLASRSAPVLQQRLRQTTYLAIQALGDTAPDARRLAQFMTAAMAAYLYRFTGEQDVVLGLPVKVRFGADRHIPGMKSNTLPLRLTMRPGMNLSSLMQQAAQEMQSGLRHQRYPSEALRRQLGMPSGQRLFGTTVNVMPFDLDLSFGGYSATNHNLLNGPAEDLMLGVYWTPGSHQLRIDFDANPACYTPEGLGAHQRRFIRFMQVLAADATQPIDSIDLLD", "test": "isothermal titration calorimetry", "type": "binding"}
{"smiles": "CCCCCCCC(=O)SCCNC(=O)CCNC(=O)[C@H](O)C(C)(C)COP(=O)(O)OP(=O)(O)OC[C@H]1O[C@@H](n2cnc3c(N)ncnc32)[C@H](O)[C@@H]1OP(=O)(O)O", "note": "[3d, C8-CoA]", "values": [{"measurement": "Kd", "result": "~0.3", "unit": "µM"}]}
